Reference: patent publication US5924973A, “Method of treating a disease process in a luminal structure” (The Trustees of Columbia University in the City of New York, priority 1996, dated 1999)
Several values for one entry are separate records, joined by “and”; a condition that tells them apart may be missing. Equal values may be shown once.

Legend:
[1] = Dual label excretion studies of 188Re-MAG3 and 99mTc-MAG3 in rats (urine, feces); format: in vivo; design: Excretion kinetics of ^188 Re-MAG3 in feces of rats, 2 h / Excretion kinetics of ^188 Re-MAG3 in feces of rats, 8 h / Excretion kinetics of ^188 Re-MAG3 in feces of rats, 10 h / Excretion kinetics of ^188 Re-MAG3 in feces of rats, 12 h / Excretion kinetics of ^188 Re-MAG3 in feces of rats, 24 h / Excretion kinetics of ^188 Re-MAG3 in feces of rats, 48 h / Excretion kinetics of ^188 Re-MAG3 in feces of rats, Total: unit not given here
Source text: Comparison of the Excretion of ^188 Re-MAG3 with ^99 mTc-MAG3 in rats
Dual Label Excretion Studies of ^188 Re-MAG3 and ^99m Tc-MAG3 in Rats

[2] = Biodistribution of 99mTc-MAG3 and 188Re-MAG3 in a dual label study, tail vein injection; format: in vivo, rats; conditions: ± standard deviation
Source text: Biodistribution Data for ^99m Tc-MAG3 and ^188 Re-MAG3 in a dual label study

[3] = 188Re-MAG3 stability study at high radioactivity levels (HPLC, TLC); format: physicochemical
Method: Stability-^188 Re-MAG3 Stability Study at High Radioactivity Levels
^188 Re-MAG3 was prepared using the protocol as described above however using 1 mL generator eluate to dissolve the contents of a commercial MAG3 Kit and addition of 1 mL of SnCl2 /citrate solution. The starting activity in 1 ml generator eluate was 1220 Mbq (33 mCi). Thus the concentration of citrate and stannous ions were maintained, however the concentration of the Kit contents in especially the Benzoyl-MAG3 precursor is reduced to half of the original protocol.
The stability was tested using HPLC-chromatography and also TLC as additional control.

[4] = Stability of 188Re-MAG3 in presence of Hypaque contrast agent; format: physicochemical
Method: Stability of ^188 Re-MAG3 in Presence of Hypaque Contrast Agent
^188 Re-MAG3 was prepared as in the upper case starting with an activity of 851 Mbq (23 mCi). After the End of Synthesis, QC via HPLC and TLC, 2 mL of a 50% Triazoate solution was added. Triazoate is known as Hypaque and is the 3,5-Bis(acetylamino)-2,4,6-triiodobenzoic acid sodium salt.

[5] = HPLC and ITLC evaluation of 188Re-MAG3 up to five hours after preparation; format: physicochemical; conditions: periods up to five hours after preparation
[6] = MIRD calculation of individual organ dose of released 188Re-MAG3; conditions: based on animal data and human 99mTc-MAG3 distribution
Source text: As alluded to previously, the probability of balloon rupture at nominal balloon inflation pressures are substantially less than one percent. Animal experiments and calculations of the individual organ dose received by a ^188 Re-MAG3 release have been done. Because the isotope is in solution, there would be no significant local arterial deposition. In fact, attempts to intentionally deposit soluble compounds in vessel walls for their pharmacological properties have been notoriously poor. The distribution and elimination of simultaneously injected ^99 mTc-MAG3 and ^188 Re-MAG3 in rats are identical. Based upon these findings Dr. Michael Stabin of the Oak Ridge Institute for Science and Education (ORISE) has calculated, based on the MIRD formalism, the individual organ dose of released ^188 Re-MAG3. The only organ receiving a dose of greater than 5 cGy would be the urinary bladder wall. This assumes spontaneous urination every 4-6 hours. […] Thus, release of the isotope upon balloon rupture would necessitate placing a bladder catheter until the urinary counts excreted return to background. Based on animal data, and on human ^99m Tc-MAG3 distribution this should occur in less than 12 hours.

[7] = 20 min after mixing with Hypaque
[8] = 80 min after mixing with Hypaque
[9] = 140 min after mixing with Hypaque
[10] = EOS - before addition of Hypaque

SMILES: O=C(O)C[N]1C(=O)C[N]2C(=O)C[N]3C(=O)C[S][188Re-]132=[O] [^188 Re-MAG3]
- Excretion kinetics of ^188 Re-MAG3 in feces of rats, 2 h ([1]; feces, 2 h, individual rats #1-4, 120 min): 0.03 and 1.50 and 0.01
- Excretion kinetics of ^188 Re-MAG3 in feces of rats, 4 h ([1]; feces, 4 h, individual rats #1-4): 0
- Excretion kinetics of ^188 Re-MAG3 in feces of rats, 6 h ([1]; feces, 6 h, individual rats #1-4): 0
- Excretion kinetics of ^188 Re-MAG3 in feces of rats, 8 h ([1]; feces, 8 h, individual rats #1-4, 480 min): 0.02 and 0 and 1.30 and 0.04
- Excretion kinetics of ^188 Re-MAG3 in feces of rats, 10 h ([1]; feces, 10 h, individual rats #1-4, 600 min): 0.41 and 3.79 and 1.79 and 1.67
- Excretion kinetics of ^188 Re-MAG3 in feces of rats, 12 h ([1]; feces, 12 h, individual rats #1-4, 720 min): 1.17 and 1.09 and 0 and 2.24
- Excretion kinetics of ^188 Re-MAG3 in feces of rats, 24 h ([1]; feces, 24 h, individual rats #1-4, 1440 min): 5.86 and 6.46 and 4.47 and 3.46
- Excretion kinetics of ^188 Re-MAG3 in feces of rats, 48 h ([1]; feces, 48 h, individual rats #1-4, 2880 min): 0.85 and 2.26 and 0.52 and 0.70
- Excretion kinetics of ^188 Re-MAG3 in feces of rats, Total ([1]; feces, Total, individual rats #1-4): 8.34 and 15.1 and 8.08 and 8.12
- Excretion kinetics of ^188 Re-MAG3 in feces of rats, Total, mean ([1]; feces, Total, mean of 4 rats, S.D. on separate line): 9.91
- distribution and elimination, 99mTc-MAG3 versus 188Re-MAG3 ([1]; simultaneously injected in rats): identical
- Excretion kinetics of ^188 Re-MAG3 in urine of rats, 6 h, mean ([1]; urine, 6 h, mean of 4 rats, S.D. on separate line): 0.97
- Excretion kinetics of ^188 Re-MAG3 in urine of rats, 8 h, mean ([1]; urine, 8 h, mean of 4 rats, S.D. on separate line): 2.75
- Excretion kinetics of ^188 Re-MAG3 in urine of rats, 10 h, mean ([1]; urine, 10 h, mean of 4 rats, S.D. on separate line): 1.15
- Excretion kinetics of ^188 Re-MAG3 in urine of rats, 12 h, mean ([1]; urine, 12 h, mean of 4 rats, S.D. on separate line): 0.83
- Excretion kinetics of ^188 Re-MAG3 in urine of rats, 24 h, mean ([1]; urine, 24 h, mean of 4 rats, S.D. on separate line): 5.07
- Excretion kinetics of ^188 Re-MAG3 in urine of rats, 48 h, mean ([1]; urine, 48 h, mean of 4 rats, S.D. on separate line): 1.76
- Excretion kinetics of ^188 Re-MAG3 in urine of rats, Total, mean ([1]; urine, Total, mean of 4 rats, S.D. on separate line): 81.97
- Biodistribution of ^188 Re-MAG3, blood ([2]; 2 h): 0.07 ± 0.01 % inj. dose/g tissue
- Biodistribution of ^188 Re-MAG3, blood ([2]; 6 h): 0.08 ± 0.02 % inj. dose/g tissue
- Biodistribution of ^188 Re-MAG3, blood ([2]; 24 h): 0.05 ± 0.02 % inj. dose/g tissue
- Biodistribution of ^188 Re-MAG3, bone ([2]; 2 h): 0.09 ± 0.11 % inj. dose/g tissue
- Biodistribution of ^188 Re-MAG3, bone ([2]; 6 h): 0.01 ± 0.01 % inj. dose/g tissue
- Biodistribution of ^188 Re-MAG3, bone ([2]; 24 h): 0.04 ± 0.05 % inj. dose/g tissue
- Biodistribution of ^188 Re-MAG3, contents of l.i. ([2]; 2 h): 0.87 ± 0.32 % inj. dose/g tissue
- Biodistribution of ^188 Re-MAG3, contents of l.i. ([2]; 6 h): 1.42 ± 0.33 % inj. dose/g tissue
- Biodistribution of ^188 Re-MAG3, contents of l.i. ([2]; 24 h): 0.05 ± 0.01 % inj. dose/g tissue
- Biodistribution of ^188 Re-MAG3, contents of s.i. ([2]; 2 h): 1.97 ± 2.58 % inj. dose/g tissue
- Biodistribution of ^188 Re-MAG3, contents of s.i. ([2]; 6 h): 0.06 ± 0.05 % inj. dose/g tissue
- Biodistribution of ^188 Re-MAG3, contents of s.i. ([2]; 24 h): 0.02 ± 0.01 % inj. dose/g tissue
- Biodistribution of ^188 Re-MAG3, heart ([2]; 2 h): 0.02 ± 0.03 % inj. dose/g tissue
- Biodistribution of ^188 Re-MAG3, heart ([2]; 6 h): 0.00 ± 0.00 % inj. dose/g tissue
- Biodistribution of ^188 Re-MAG3, heart ([2]; 24 h): 0.01 ± 0.00 % inj. dose/g tissue
- Biodistribution of ^188 Re-MAG3, kidneys ([2]; 2 h): 0.12 ± 0.03 % inj. dose/g tissue
- Biodistribution of ^188 Re-MAG3, kidneys ([2]; 6 h): 0.11 ± 0.02 % inj. dose/g tissue
- Biodistribution of ^188 Re-MAG3, kidneys ([2]; 24 h): 0.07 ± 0.01 % inj. dose/g tissue
- Biodistribution of ^188 Re-MAG3, l. intestine ([2]; 2 h): 0.06 ± 0.02 % inj. dose/g tissue
- Biodistribution of ^188 Re-MAG3, l. intestine ([2]; 6 h): 0.13 ± 0.03 % inj. dose/g tissue
- Biodistribution of ^188 Re-MAG3, l. intestine ([2]; 24 h): 0.02 ± 0.00 % inj. dose/g tissue
- Biodistribution of ^188 Re-MAG3, liver ([2]; 2 h): 0.03 ± 0.01 % inj. dose/g tissue
- Biodistribution of ^188 Re-MAG3, liver ([2]; 6 h): 0.03 ± 0.00 % inj. dose/g tissue
- Biodistribution of ^188 Re-MAG3, liver ([2]; 24 h): 0.02 ± 0.00 % inj. dose/g tissue
- Biodistribution of ^188 Re-MAG3, lung ([2]; 2 h): 0.05 ± 0.02 % inj. dose/g tissue
- Biodistribution of ^188 Re-MAG3, lung ([2]; 6 h): 0.02 ± 0.00 % inj. dose/g tissue
- Biodistribution of ^188 Re-MAG3, lung ([2]; 24 h): 0.01 ± 0.01 % inj. dose/g tissue
- Biodistribution of ^188 Re-MAG3, s. intestine ([2]; 2 h): 0.06 ± 0.04 % inj. dose/g tissue
- Biodistribution of ^188 Re-MAG3, s. intestine ([2]; 6 h): 0.01 ± 0.00 % inj. dose/g tissue
- Biodistribution of ^188 Re-MAG3, s. intestine ([2]; 24 h): 0.01 ± 0.00 % inj. dose/g tissue
- Biodistribution of ^188 Re-MAG3, spleen ([2]; 2 h): 0.03 ± 0.02 % inj. dose/g tissue
- Biodistribution of ^188 Re-MAG3, spleen ([2]; 6 h): 0.00 ± 0.01 % inj. dose/g tissue
- Biodistribution of ^188 Re-MAG3, spleen ([2]; 24 h): 0.02 ± 0.01 % inj. dose/g tissue
- Biodistribution of ^188 Re-MAG3, thyroid ([2]; 2 h): 0.70 ± 0.49 % inj. dose/g tissue
- Biodistribution of ^188 Re-MAG3, thyroid ([2]; 6 h): 0.76 ± 0.42 % inj. dose/g tissue
- Biodistribution of ^188 Re-MAG3, thyroid ([2]; 24 h): 0.74 ± 0.76 % inj. dose/g tissue
- Stability, HPLC ([3]; 1 hour after EOS): 92.0%
- Stability, HPLC ([3]; 2 hours after EOS): 91.1%
- Stability, HPLC ([3]; 3 hours after EOS): 90.3%
- Stability, HPLC ([3]; 4 hours after EOS): 88.3%
- Stability, HPLC ([3]; 5 hours after EOS): 100.8%
- Stability, HPLC ([3]; 24 hours after EOS): 92.4%
- Stability, TLC ([3]; 24 hours after EOS): 93.4%
- Stability, TLC ([3]; End of Synthesis (EOS)): 97.3%
- Stability, HPLC ([3]; End of Synthesis (EOS), starting activity 1220 Mbq (33 mCi)): 97.3%
- Stability in presence of Hypaque, HPLC [4, 7]: > 90%
- Stability in presence of Hypaque, TLC [4, 7]: 94.4%
- Stability in presence of Hypaque, TLC ([4]; 50 min after mixing with Hypaque): 90.5%
- Stability in presence of Hypaque, HPLC [4, 8]: 86.6%
- Stability in presence of Hypaque, TLC [4, 8]: 87.7%
- Stability in presence of Hypaque, HPLC [4, 9]: 83.3%
- Stability in presence of Hypaque, TLC [4, 9]: 83.3%
- Stability in presence of Hypaque, HPLC [4, 10]: > 95%
- Stability in presence of Hypaque, RP-Sep-Pak [4, 10]: 98.3%
- Stability in presence of Hypaque, TLC [4, 10]: 97.6%
- radioactive degradation product found ([4]; after mixing with Hypaque): free perrhenate
- stability by HPLC and ITLC [5]: no decomposition or effects of radiolysis have been observed
- time until urinary counts excreted return to background [6]: less than 12 hours
